Laboratory results from patent US6579888B2, “Method and kit for treating illnesses” (Opt-e-scrip, Inc., priority 1994, dated 2003).

Assays:
[1] = test system: hyperactive child (Minimum Brain Dysfunction); test: SPAS single-patient random double-blind crossover trial of methylphenidate versus placebo
Protocol: In this example, the usefulness of methylphenidate (Ritalin) treatment in a hyperactive child (Minimum Brain Dysfunction) is evaluated.
Technology: Consists of instructions, “calendar” packaging for drug and a substantially identical looking placebo to assure appropriate dosing and monitor compliance, questionnaire assessment forms and instructions. […] Results are mailed to the physician and, in this case, parent for use in evaluating the usefulness of the therapy. The physician and parent are contacted, e.g., every three months to provide data on therapies utilized, and perceived outcome, until the condition resolves.
The questionnaire portion of the kit includes an initial consent form for the parent or guardian to complete. The questionnaire also provides background information on the study and possible side effects associated with the medication. Also included therein is a portion for providing relevant patient and family histories. More importantly, the questionnaire, in this case includes a portion for the weekly input by parents or guardian and school observers of answers to questions relating to the drug evaluation. Typical questionnaire sheet for these portions are shown below as Table 1 and Table 2. Physician questionnaires are similarly arranged.
The trial calls for 40 mg daily given at 10 mg four times daily compared to identical appearing placebo given four times daily.

[2] = test system: patients with the same disorder (hyperactive child); test: Pooled SPAS data and monthly follow-up of patients with the same disorder continued on methylphenidate; type: in vivo, human
Protocol: All results obtained from the data are then compared against the results provided by data amassed from a pool of about 200 patients with the same disorder. Of these 200 patients, 55 experienced encouraging results (as did the current patient) and were continued on 40 mg daily treatment. Of these 55 patients, 5 were lost to follow-up, with 50 remaining for prospective evaluation. Because the physician would now choose to continue the patient on 40 mg methylphenidate daily based solely on the isolated SPAS single patient drug trial results, they now take the opportunity of reviewing the pooled data on the 50 patients. This is done to understand under what circumstances this individual patient would likely continue to show benefit from methylphenidate 40 mg treatment, and what conditions lead to treatment failure.
The pool of 50 patients who continued treatment had the following scores following the original SPAS testing:
All 50 patients were followed up by telephone interview monthly for nine months or more, and outcomes were prospectively documented.

hypertensive person = test: Six-week random double-blind trial of sustained release verapamil as therapeutic alternative to sustained release propranolol; type: in vivo, human; conditions: verapamil SR 240 mg once daily versus propranolol SR 180 mg once daily; end of six-week trial; statistically insignificant
Protocol: In this example, the validity of using a sustained release formulation of verapamil 240 mg once daily as a therapeutic alternative to sustained release propranolol 180 mg once daily in a hypertensive person is shown. The trial during which the two medications are randomly administered in a double-blind manner is six weeks. The questionnaire used is set up in a manner similar to that described in above examples except that the questions elicit information related to the disease of hypertension. Blood pressure is taken daily by the patient and weekly by the physician. Lab values and vision tests are also reported weekly by the physician. […] Both values are statistically insignificant and the therapeutic alternative selection is objectively validated.

[3] = patients with statistically altered sleep patterns, continued 40 mg daily
[4] = pool of 50 patients, original SPAS testing

Structure (SMILES)	patient's attention span ([1]; 40 mg daily (10 mg four times daily), methylphenidate periods versus placebo periods)	teacher comments ([1]; 40 mg daily, methylphenidate dosing periods)	sleep patterns ([1]; 40 mg daily, methylphenidate periods)	outcome on continued treatment, patients with no statistically altered sleep disturbances ([2]; 40 mg daily, monthly follow-up for nine months or more)	outcome on continued treatment, patients with statistically altered sleep patterns ([2]; 40 mg daily, within two months)	discontinuation from treatment ([2]; all patients with a statistically altered sleep disturbance)	patients who experienced encouraging results and were continued on treatment ([2]; of a pool of about 200 patients, 40 mg daily)	patients who experienced a grand mal seizure [2, 3]	severe episodes of bizarre behaviors / severe adverse event [2, 3]	Attention Span: patients who had substantial improvement ([2]; pool of 50 patients who continued treatment, original SPAS testing)	Sleep Patterns: patients not statistically altered [2, 4]	Sleep Patterns: patients statistically altered [2, 4]	Teacher Comments: corroborate improved attention span [2, 4]	Teacher Comments: did not corroborate improved attention span [2, 4]	mean diastolic pressure (hypertensive person)	mean systolic blood pressure increase (hypertensive person)
COC(=O)C(c1ccccc1)C1CCCCN1 (stereo not shown) [methylphenidate]	improved substantially	corroborate improved attention span	statistically altered	continued to be well maintained on treatment	showed loss of symptom control	had to be discontinued from treatment within two months	55 patients	two	90%	100% had substantial	50% were not statistically	50% were statistically altered	80% corroborate improved	20% did not corroborate		
COc1ccc(CCN(C)CCCC(C#N)(c2ccc(OC)c(OC)c2)C(C)C)cc1OC (stereo not shown) [verapamil]															essentially stable	3%
